The subject of data set [1] is Leishmania donovani. Briefly: Inhibition of succinate-ubiquinone oxidoreductase in Leishmania donovani promastigotes mitochondria using succinate as substrate in presence fo DCPIP by photometry analysis relative to control. To be noted: concentration not given here.
Data set [2] has as its system Leishmania donovani. Briefly: Inhibition of ubiquinol cytochrome c reductase in Leishmania donovani promastigotes mitochondria at 2 uM using decylubiquinol as substrate in presence of cytochrome c relative to control.
Data set [3] can be described thus: Selectivity index, ratio of CC50 for mouse J774 cells to IC50 for antileishmanial activity against Leishmania donovani MHOM/IN/80/Dd8 amastigotes harboring luciferase reporter gene. In kind it is toxicity. The note with it: read-out: Ratio CC50/IC50.
Data set [4] is described as follows: Selectivity index, ratio of CC50 for African green monkey Vero cells to IC50 for antileishmanial activity against Leishmania donovani MHOM/IN/80/Dd8 amastigotes harboring luciferase reporter gene. In kind it is toxicity. To be noted: read-out: Ratio CC50/IC50. In general terms: A reporter such as luciferase makes a cellular process visible.
Data set [5] in a line: Cytotoxicity against African green monkey Vero cells assessed as cell viability at 25 uM by MTT assay relative to control. In kind it is cell-based. The note with it: chlorocebus sabaeus, read-out: Activity. Background: Formazan colour is commonly taken as a measure of viable cells.
Data set [6] has as its system Leishmania donovani. Briefly: Antileishmanial activity against Leishmania donovani MHOM/IN/80/Dd8 amastigotes harboring luciferase reporter gene infected in mouse J774 cells at 25 uM after 72 hrs by Steady-Glo luminescence assay relative to control. Format: functional. To be noted: MHOM/IN/80/Dd8, J774, 72 h.
Data set [7] can be described thus: Cytotoxicity against African green monkey Vero cells assessed as cell viability at 100 uM by MTT assay relative to control. In kind it is cell-based. To be noted: chlorocebus sabaeus, read-out: Activity.
For data set [8], the system named is Leishmania donovani. Briefly: Antileishmanial activity against promastigote stage of Leishmania donovani MHOM/IN/80/Dd8 harboring luciferase reporter gene at 25 uM after 48 hrs by Steady-Glo luminescence assay relative to control. Format: functional. To be noted: MHOM/IN/80/Dd8, 48 h.
In data set [9] the test system is Leishmania donovani. Description: Antileishmanial activity against Leishmania donovani MHOM/IN/80/Dd8 amastigotes harboring luciferase reporter gene infected in mouse J774 cells at 100 uM after 72 hrs by Steady-Glo luminescence assay relative to control. In kind it is functional. To be noted: MHOM/IN/80/Dd8, J774, 72 h.
A short description of data set [10]: Cytotoxicity against African green monkey Vero cells assessed as cell viability at 50 uM by MTT assay relative to control. Format: cell-based. To be noted: chlorocebus sabaeus, read-out: Activity.
Data set [11] has as its system Leishmania donovani. Briefly: Antileishmanial activity against promastigote stage of Leishmania donovani MHOM/IN/80/Dd8 harboring luciferase reporter gene at 100 uM after 48 hrs by Steady-Glo luminescence assay relative to control. In kind it is functional. The note with it: MHOM/IN/80/Dd8, 48 h.
For data set [12], the system named is Leishmania donovani. Briefly: Antileishmanial activity against promastigote stage of Leishmania donovani MHOM/IN/80/Dd8 harboring luciferase reporter gene at 50 uM after 48 hrs by Steady-Glo luminescence assay relative to control. Format: functional. The note with it: MHOM/IN/80/Dd8, 48 h.
In data set [13] the test system is Leishmania donovani. Briefly: Antileishmanial activity against Leishmania donovani MHOM/IN/80/Dd8 amastigotes harboring luciferase reporter gene infected in mouse J774 cells at 50 uM after 72 hrs by Steady-Glo luminescence assay relative to control. Format: functional. The note with it: MHOM/IN/80/Dd8, J774, 72 h.
In data set [14] the test system is Leishmania donovani. Briefly: Induction of mitochondrial dysfunction in Leishmania donovani promastigotes assessed as reduction in mitochondrial membrane potential at 50 uM after 15 mins by JC-1 staining-based flow cytometric analysis (reference value: 7.73%). Format: functional. On the set-up: scale not given: the % may be the effect or the level left. (In general: Flow cytometry measures light scatter and fluorescence of single cells or particles in a stream.)

Data set [15] in a line: Half life in mouse liver microsomes after 1 hr in presence of NADPH by UPLC analysis. In kind it is ADME, Microsome.
Data set [16] in a line: Stability in mouse liver microsomes assessed as compound remaining after 1 hr in presence of NADPH by UPLC analysis. To be noted: read-out: Stability. In kind it is ADME, Microsome.
Data set [17] can be described thus: Stability in simulated gastric fluid at 10 ug/ml measured after 2 hrs by UPLC analysis relative to control. In kind it is ADME. To be noted: read-out: Stability.
Data set [18] in a line: Intrinsic clearance in mouse liver microsomes after 1 hr in presence of NADPH by UPLC analysis. In kind it is ADME, Microsome.
Data set [19] can be described thus: Stability in simulated intestinal fluid at 10 ug/ml measured after 2 hrs by UPLC analysis relative to control. Format: ADME. To be noted: read-out: Stability.
The nature of data set [20]: Stability in mouse plasma at 10 ug/ml measured after 2 hrs by UPLC analysis relative to control. Format: ADME, cell-free. To be noted: read-out: Stability.

We go through twelve molecules from ChEMBL document CHEMBL4406843, “β-Amino acid derivatives as mitochondrial complex III inhibitors of L. donovani: A promising chemotype targeting visceral leishmaniasis” (Eur J Med Chem, 2019).

Molecules are shown by their SMILES.

Turning to `O=C(CC(=O)C(F)(F)F)c1ccco1`, in the data set on Leishmania donovani [1], the inhibition (as a rule, the relative decrease from the control value, in per cent) is > 84%.
In the case of `CCCCCCC1C(=O)O[C@H](C)[C@H](NC(=O)c2cccc(NC=O)c2O)C(=O)O[C@@H](C)[C@@H]1OC(=O)CC(C)C` (stereo partly drawn), the inhibition with Leishmania donovani [2] was > 93%.
In the case of `CCCCCCCCCCCCCCCCOP(=O)([O-])OCC[N+](C)(C)C` [MILTEFOSINE], the values for the selectivity ratio in data set [3] and in data set [4] were 5.8 and 5.3, respectively.
With `CSc1ccc(C(=O)C(c2ccc(Cl)c(Cl)c2)C(NC(=O)c2ccc(Br)cc2)c2cccc3ccccc23)cc1` (stereo not drawn), the viability at 25 µM in data set [5] worked out at 92.8%. The inhibition at 25 µM with Leishmania donovani [6] stood at 21.2%; with Leishmania donovani [8], 56.3%. Moreover, in data set [7], the viability at 100 µM amounted to 88.5%. In addition, the inhibition at 100 µM with Leishmania donovani [9] was found to be 39.2%; in the data set with Leishmania donovani [11], 77.2%. Also, the viability at 50 µM in data set [10] amounted to 90.2%. In addition, the inhibition at 50 µM in the data set on Leishmania donovani [12] was 74.9%; in the data set with Leishmania donovani [13] it was 38.3%.
`CSc1ccc(C(=O)/C(=C/c2cccnc2)c2ccc(Cl)c(Cl)c2)cc1`: the viability at 25 µM in data set [5] was found to be 95.7%. The inhibition at 25 µM in the data set with Leishmania donovani [6] is 34.3%; in the data set on Leishmania donovani [8], 46.7%. In addition, the viability at 100 µM in data set [7] came to 88.6%. Moreover, the inhibition at 100 µM with Leishmania donovani [9] is 62.1%; in the data set with Leishmania donovani [11] it was 83.2%. The viability at 50 µM in data set [10] came to 89.6%. The inhibition at 50 µM with Leishmania donovani [12] came out at 80.4%; with Leishmania donovani [13], 59.3%.
For the molecule `CSc1ccc(C(=O)C(c2ccc(Cl)c(Cl)c2)C(NC(=O)c2ccccc2)c2cccc3ccccc23)cc1` (stereo not drawn), in [5], the viability at 25 µM stood at 98.2%. For the same molecule, the inhibition at 25 µM in the data set on Leishmania donovani [6] worked out at 43.1%; in the data set on Leishmania donovani [8], 33.4%. For the same molecule, the viability at 100 µM in data set [7] stood at 89.2%. Besides, the values for the inhibition at 100 µM in the data set on Leishmania donovani [9] and in the data set on Leishmania donovani [11] were 72.3% and 45.6%, respectively. In [10], the viability at 50 µM worked out at 93.9%. In addition, the results for the inhibition at 50 µM in the data set on Leishmania donovani [12] and in the data set on Leishmania donovani [13] were 42.1% and 69.4%, respectively.
Consider `N#CC(C#N)=NNc1cccc(Cl)c1` [CARBONYL CYANIDE M-CHLOROPHENYLHYDRAZONE], for which the Activity in the data set on Leishmania donovani [14] is 94.26%.
For `CSc1ccc(C(=O)/C(=C/c2ccccn2)c2ccc(Cl)c(Cl)c2)cc1`, the viability at 25 µM in data set [5] stood at 97.9%. Further, the inhibition at 25 µM with Leishmania donovani [6] came out at 17.5%; in the data set with Leishmania donovani [8] it was 53.4%. Moreover, the viability at 100 µM in data set [7] was 89.6%. Besides, the inhibition at 100 µM in the data set with Leishmania donovani [9] stood at 38.5%; with Leishmania donovani [11], 76.6%. In data set [10], the viability at 50 µM was found to be 93.6%. Moreover, the inhibition at 50 µM worked out at 74.6% in the data set on Leishmania donovani [12] and 36.2% in the data set on Leishmania donovani [13].
With `CCOC(=O)C(C(=O)c1ccc(OC)cc1)C(NC(C)=O)c1ccc(C(C)C)cc1` (stereo not drawn), the viability at 25 µM in data set [5] was 98.8%. Besides, the results for the inhibition at 25 µM in the data set with Leishmania donovani [6] and in the data set on Leishmania donovani [8] were 29.4% and 30.8%, respectively. The viability at 100 µM in data set [7] was found to be 90.4%. Further, the inhibition at 100 µM came to 55.3% in the data set on Leishmania donovani [9] and 34% with Leishmania donovani [11]. In addition, the viability at 50 µM in [10] was 96.5%. In addition, the inhibition at 50 µM stood at 33.5% in the data set with Leishmania donovani [12] and 44.4% with Leishmania donovani [13].
With `CSc1ccc(C(=O)C(c2ccc(Cl)c(Cl)c2)C(NC(=O)c2cccc(C)c2)c2cc3ccccc3s2)cc1` (stereo not drawn), in data set [5], the viability at 25 µM came to 92.1%. Further, the inhibition at 25 µM in the data set with Leishmania donovani [6] was found to be 12%; in the data set on Leishmania donovani [8], 24.3%. In [7], the viability at 100 µM came out at 87.3%. In addition, the inhibition at 100 µM in the data set with Leishmania donovani [9] was found to be 27.2%; in the data set on Leishmania donovani [11] it was 35.1%. Further, the viability at 50 µM in data set [10] was 90.6%. The inhibition at 50 µM in the data set on Leishmania donovani [12] came to 30.4%; with Leishmania donovani [13], 21.9%.
On to `CCOC(=O)C(C(=O)c1ccc(OC)cc1)C(NC(C)=O)c1ccc(OC)c(OC)c1` (stereo not drawn), for which, in [5], the viability at 25 µM is 99.1%. For the same molecule, the inhibition at 25 µM in the data set on Leishmania donovani [6] was 57.1%; in the data set with Leishmania donovani [8] it was 30.2%. Also, the viability at 100 µM in [7] came out at 88.5%. The inhibition at 100 µM in the data set on Leishmania donovani [9] stood at 59.2%; with Leishmania donovani [11] it was 35.8%. Further, in data set [10], the viability at 50 µM came to 96.7%. The inhibition at 50 µM was 35% in the data set with Leishmania donovani [12] and 58.1% in the data set on Leishmania donovani [13].
For `CCOC(=O)C(C(=O)c1ccc(OC)cc1)C(NC(C)=O)c1cc(OC)ccc1Br` (stereo not drawn), in data set [5], the viability at 25 µM was found to be 96.3%. The inhibition at 25 µM in the data set with Leishmania donovani [6] stood at 58.2%; in the data set on Leishmania donovani [8], 68%. For the same molecule, the viability at 100 µM in [7] came to 90.7%. Also, the half-life (as a rule, the time in which the quantity being followed falls by half) in data set [15] is 1.55 h. The inhibition at 100 µM in the data set on Leishmania donovani [9] was 64.2%; in the data set on Leishmania donovani [11], 81.2%. For the same molecule, the remaining at 1 h in [16] amounted to 57.8%. The figures for the remaining at 2 h, 10 ug/ml in data set [17], in data set [19] and in data set [20] were 71.1%, 69.6% and 6.97%, respectively. In addition, the CLH in [18] came out at 5 µL/min/mg. For the same molecule, in [10], the viability at 50 µM was 93.3%. The inhibition at 50 µM in the data set on Leishmania donovani [12] was 80.3%; with Leishmania donovani [13] it was 62.3%.
